Experiments:
Assay type in all cases: cell-based
CYP1A1 [1] = target: T1, CYP1A1 (Mus musculus, UniProt P00184); test: Inhibition of CYP1A1 in mouse RAW264.7 cells assessed as relative activity by measuring fold change at 5 uM incubated for 12 hrs by EROD assay relative to control; conditions: read-out: FC
T1 sequence (P00184 whole entry): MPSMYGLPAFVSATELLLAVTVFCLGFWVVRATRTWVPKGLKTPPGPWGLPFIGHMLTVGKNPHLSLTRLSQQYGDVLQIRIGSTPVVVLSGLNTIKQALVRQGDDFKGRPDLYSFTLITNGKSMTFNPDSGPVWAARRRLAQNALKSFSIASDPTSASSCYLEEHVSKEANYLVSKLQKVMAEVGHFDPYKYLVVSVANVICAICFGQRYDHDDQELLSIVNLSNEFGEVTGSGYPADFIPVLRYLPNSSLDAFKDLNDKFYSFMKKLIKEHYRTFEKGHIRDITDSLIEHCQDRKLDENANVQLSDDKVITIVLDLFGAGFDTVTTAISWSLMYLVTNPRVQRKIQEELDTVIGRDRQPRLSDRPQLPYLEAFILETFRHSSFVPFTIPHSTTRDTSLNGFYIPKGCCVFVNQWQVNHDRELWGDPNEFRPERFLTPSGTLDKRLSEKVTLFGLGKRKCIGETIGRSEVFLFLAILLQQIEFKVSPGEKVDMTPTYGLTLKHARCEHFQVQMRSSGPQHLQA

Cytochrome P450 1A1 = target: T2, Cytochrome P450 1A1 (Homo sapiens, UniProt P04798); test: Inhibition of CYP1A1 in human Caco-2 cells assessed as relative activity by measuring fold change at 5.0 uM incubated for 12 hrs by EROD assay relative to control; conditions: caco-2, 12 h
T2 sequence (P04798 whole entry): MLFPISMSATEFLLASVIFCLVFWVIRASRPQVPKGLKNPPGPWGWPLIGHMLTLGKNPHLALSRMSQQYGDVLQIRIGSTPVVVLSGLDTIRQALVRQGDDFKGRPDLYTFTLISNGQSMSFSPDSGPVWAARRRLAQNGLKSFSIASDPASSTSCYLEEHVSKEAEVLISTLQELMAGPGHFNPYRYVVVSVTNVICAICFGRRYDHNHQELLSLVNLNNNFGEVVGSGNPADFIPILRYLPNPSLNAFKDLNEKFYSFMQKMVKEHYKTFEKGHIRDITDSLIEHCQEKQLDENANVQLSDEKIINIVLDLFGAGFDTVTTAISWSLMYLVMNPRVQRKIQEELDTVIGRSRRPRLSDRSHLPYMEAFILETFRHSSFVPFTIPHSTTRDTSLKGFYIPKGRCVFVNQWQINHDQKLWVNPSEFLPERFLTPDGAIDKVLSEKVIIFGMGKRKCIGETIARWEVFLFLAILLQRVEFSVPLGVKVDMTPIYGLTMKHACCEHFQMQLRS

CYP1A1 [2] = target: T1, CYP1A1; test: Inhibition of CYP1A1 in mouse RAW264.7 cells assessed as relative activity by measuring fold change at 500 nM incubated for 12 hrs by EROD assay relative to control; conditions: read-out: FC
CYP1A1 [3] = target: T3, CYP1A1 (Homo sapiens, UniProt P04798); test: Inhibition of CYP1A1 in human Caco-2 cells assessed as relative activity by measuring fold change at 500 nM incubated for 12 hrs by EROD assay relative to control; conditions: read-out: FC
T3 sequence (P04798 whole entry): T2 sequence (P04798 whole entry)

Row | Structure (SMILES) | fold induction at 12 h, 5 µM (CYP1A1 [1]) | fold change (FC) (Cytochrome P450 1A1) | fold induction at 12 h, 0.5 µM (CYP1A1 [2]) | fold induction at 12 h, 0.5 µM (CYP1A1 [3])
1 | Cn1c(=O)n(C)c2cc(C(=O)/C=C/c3cc(F)cc(F)c3)ccc21 | 0.89 | 0.74 | 0.76 | 0.89
2 | Cn1c(=O)n(C)c2cc(C(=O)/C=C/c3ccc([N+](=O)[O-])cc3)ccc21 | 0.64 | 0.37 | 0.79 | 0.97
3 | Cn1c(=O)n(C)c2cc(C(=O)/C=C/c3coc4ccccc34)ccc21 | 0.22 | 0.9 | 0.5 | 1.29
4 | Cn1c(=O)n(C)c2cc(C(=O)/C=C/c3ccc(C(C)(C)C)cc3)ccc21 | 0.51 | 0.97 | 0.64 | 0.98
5 | Cn1c(=O)n(C)c2cc(C(=O)/C=C/C=C/c3ccc(F)cc3)ccc21 | 0.57 | 0.17 | 0.82 | 0.62
6 | C#Cc1ccc(/C=C/C(=O)c2ccc(N(C)C(C)=O)cc2)cc1 | 1.04 | 0.78 | 1.16 | 0.81
7 | Cn1c(=O)n(C)c2cc(C(=O)/C=C/c3ccc(F)cc3)ccc21 | 0.19 | 0.08 | 0.29 | 0.47
8 | Cc1ccc(/C=C/C(=O)c2ccc3c(c2)n(C)c(=O)n3C)cn1 | 0.2 | 0.08 | 0.77 | 0.66
9 | COc1ccc2c(c1)c(/C=C/C(=O)c1ccc3c(c1)n(C)c(=O)n3C)cn2Cc1ccccc1 | 0.81 | 0.81 | 1.15 | 1.14
10 | Cn1c(=O)n(C)c2cc(C(=O)/C=C/c3cnc4ccccc4c3)ccc21 | 0.29 | 0.15 | 1.03 | 0.62
11 | Cn1c(=O)n(C)c2cc(C(=O)/C=C/c3ccc4ccccc4c3)ccc21 | 0.77 | 0.47 | 0.8 | 1.18
12 | C#Cc1ccc(/C=C/C(=O)c2ccc(NC(C)=O)cc2)cc1 | 0.57 | 0.43 | 1.12 | 0.76
13 | Cn1c(=O)n(C)c2cc(C(=O)/C=C/C#Cc3ccccc3)ccc21 | 0.49 | 0.39 | 0.79 | 0.85
14 | Cn1c(=O)n(C)c2cc(C(=O)/C=C/c3ccc(-c4ccccc4)cc3)ccc21 | 0.81 | 0.15 | 0.96 | 0.75
15 | Cn1c(=O)n(C)c2cc(C(=O)/C=C/c3cccc(F)c3)ccc21 | 0.8 | 0.07 | 1.42 | 0.32
16 | Cn1c(=O)n(C)c2cc(C(=O)/C=C/C3CC3)ccc21 | 0.38 | 0.12 | 0.8 | 0.71
17 | CC(=O)n1cc(/C=C/C(=O)c2ccc3c(c2)n(C)c(=O)n3C)c2ccccc21 | 0.17 | 0.77 | 0.92 | 0.93
18 | Cn1c(=O)n(C)c2cc(C(=O)/C=C/c3ccc(O[Si](C)(C)C(C)(C)C)cc3)ccc21 | 0.89 | 0.43 | 1.11 | 0.69

Row | Structure (SMILES) | fold induction at 12 h, 5 µM (CYP1A1 [1]) | fold change (FC) (Cytochrome P450 1A1) | fold induction at 12 h, 0.5 µM (CYP1A1 [2]) | fold induction at 12 h, 0.5 µM (CYP1A1 [3])
19 | Cn1c(=O)n(C)c2cc(C(=O)/C=C/c3cccn3C(=O)OC(C)(C)C)ccc21 | 0.55 | 0.67 | 0.69 | 0.9
20 | Cn1c(=O)n(C)c2cc(C(=O)/C=C/c3ccco3)ccc21 | 0.31 | 0.47 | 0.5 | 0.87
21 | Cn1c(=O)n(C)c2cc(C(=O)/C=C/C#C[Si](C)(C)C)ccc21 | 0.15 | 0.11 | 0.55 | 0.66
22 | Cn1c(=O)n(C)c2cc(C(=O)/C=C/c3ccncc3)ccc21 | 1.22 | 3.08 | 1.08 | 2.34
23 | Cn1c(=O)n(C)c2cc(C(=O)/C=C/c3cc4ccccc4o3)ccc21 | 0.52 | 0.31 | 0.82 | 0.66
24 | Cn1c(=O)n(C)c2cc(C(=O)/C=C/c3cc4ccccc4s3)ccc21 | 0.77 | 0.56 | 1.12 | 0.81
25 | Cn1c(=O)n(C)c2cc(C(=O)/C=C/c3ccc(F)cc3F)ccc21 | 0.56 | 0.42 | 0.74 | 0.68
26 | Cn1c(=O)n(C)c2cc(C(=O)/C=C/c3ccc(I)o3)ccc21 | 0.55 | 0.18 | 0.75 | 0.5
27 | Cn1c(=O)n(C)c2cc(C(=O)/C=C/c3cccc(OC(F)(F)F)c3)ccc21 | 0.16 | 0.17 | 0.62 | 0.58
28 | Cn1c(=O)n(C)c2cc(S(=O)(=O)NCc3ccccc3)ccc21 | 0.9 | 0.94 | 1.02 | 1.1
29 | C#Cc1ccc(/C=C/C(=O)c2ccccc2)cc1 | 0.18 | 0.3 | 0.52 | 0.6
30 | O=C(/C=C/c1ccc(F)cc1)c1ccccc1 [4-FLUORO CHALCONE] | 0.91 | 0.86 | 1.1 | 0.83
31 | Cn1c(=O)n(C)c2cc(C(=O)/C=C/c3cccnc3)ccc21 | 0.53 | 0.93 | 2.57 | 3.53
32 | Cn1c(=O)n(C)c2cc(C(=O)/C=C/c3ccccc3P(c3ccccc3)c3ccccc3)ccc21 | 0.31 | 0.16 | 0.86 | 0.72
33 | Cn1c(=O)n(C)c2cc(C(=O)/C=C/c3ncccn3)ccc21 | 0.72 | 0.88 | 0.73 | 1.05
34 | Cn1c(=O)n(C)c2cc(C(=O)/C=C/c3ccc(F)cc3Cl)ccc21 | 0.56 | 0.38 | 0.67 | 0.84
35 | Cn1c(=O)n(C)c2cc(C(=O)/C=C/c3c4ccccc4cc4ccccc34)ccc21 | 1.06 | 0.71 | 1.15 | 0.8

— ChEMBL document CHEMBL6178019, “Discovery of CYP1A1 Inhibitors for Host-Directed Therapy against Sepsis” (J Med Chem, 2025)
